Experiments:
[1] = Transdermal delivery of a small molecule compound (summary); assay type: in vitro ADME; parameters: key: 0: on a scale using +symbols to reflect extent of the effect; −: on a scale using +symbols to reflect extent of the effect; +/−: on a scale using +symbols to reflect extent of the effect; on a scale using +symbols to reflect extent of the effect; ++: on a scale using +symbols to reflect extent of the effect; +++: on a scale using +symbols to reflect extent of the effect; ++++: on a scale using +symbols to reflect extent of the effect; +++++: on a scale using +symbols to reflect extent of the effect; conditions: compound of less than about 850 Da, hyaluronic acid decoy
Text: (§1) It will be appreciated that Examples 1-6, 11, 12 illustrate hyaluronic acid as a decoy molecule exemplary of the decoy molecules contemplated herein. As described above, decoy molecules of collagen and elastin are contemplated, where the molecular weight of the decoy molecule can be selected to tailor the delivery of the agent of interest across the skin. The table below summarizes the effect of the decoy molecule (using the hyaluronic acid as exemplary) on the transdermal delivery of a small molecule compound (e.g, one with a molecular weight of less than about 850 Da), on the transdermal delivery of a macromolecule compound (e.g, a peptide or a protein), on the extent of penetration of the decoy molecule into skin upon topical application, and on the enhancement of water content in skin by the decoy molecule, on a scale using +symbols to reflect extent of the effect.

[2] = Transdermal delivery of a macromolecule compound (summary); assay type: in vitro ADME; parameters: key: 0: on a scale using +symbols to reflect extent of the effect; −: on a scale using +symbols to reflect extent of the effect; +/−: on a scale using +symbols to reflect extent of the effect; on a scale using +symbols to reflect extent of the effect; ++: on a scale using +symbols to reflect extent of the effect; +++: on a scale using +symbols to reflect extent of the effect; ++++: on a scale using +symbols to reflect extent of the effect; +++++: on a scale using +symbols to reflect extent of the effect; conditions: peptide or protein, hyaluronic acid decoy
Text: as §1

[3] = Penetration of the decoy molecule into skin upon topical application (summary); assay type: in vitro ADME; parameters: key: 0: on a scale using +symbols to reflect extent of the effect; −: on a scale using +symbols to reflect extent of the effect; +/−: on a scale using +symbols to reflect extent of the effect; on a scale using +symbols to reflect extent of the effect; ++: on a scale using +symbols to reflect extent of the effect; +++: on a scale using +symbols to reflect extent of the effect; ++++: on a scale using +symbols to reflect extent of the effect; +++++: on a scale using +symbols to reflect extent of the effect
Text: as §1

[4] = Gabapentin delivery into porcine skin grafts, UPLC-mass spectrometer; assay type: in vitro ADME; conditions: 1% gabapentin in saline, 12-20 hours
Protocol: Delivery of gabapentin with hyaluronic acid into skin in vitro was measured using porcine skin grafts, and compared to delivery of gabapentin from a composition of gabapentin in saline (with no decoy molecule). Groups consisted of A) 1% gabapentin in saline (n=8 replicates), B) 1% gabapentin plus 1% sodium hyaluronate decoy of 3,000 Da in saline (n=8 replicates) or C) saline alone (n=8 replicates) in donor cells.
Briefly, tissues were incubated overnight in 0.5 mL of 50% acetonitrile in deionized water at 55° C. with agitation. Calibration standards and tissue extraction solvent samples were diluted 10× in deionized water before analysis. Diluted standards and samples were analyzed at 1 μL injection volumes. Concentrations were reported as μg/g of gabapentin in tissue.

[5] = 1 wt. % minocycline, 1% hyaluronic acid decoy or none, p=0.0004
Protocol: Delivery of minocycline into porcine skin in vitro was measured and compared to delivery of minocycline from a composition of minocycline in saline (i.e, with no decoy molecule). Compositions were prepared containing of 1 wt. % minocycline and 1% of decoy molecule of hyaluronic acid with three molecular weights: 10,000 Da mean, 20,000 Da mean, and 30,000 Da mean. A control formulation containing 1 wt % minocycline in saline was also prepared

[6] = listed as disaccharide (400 Da)

## hyaluronic acid [Hyaluronic Acid degraded 5000 Da]
[1]; listed as degraded 5000 Da
  Delivery of a Small Molecule Compound: −
[2]; listed as degraded 5000 Da
  Delivery of a Macromolecule Compound: −
[3]; listed as degraded 5000 Da
  Hyaluronic Acid Skin Penetration: ++++

## NCC1(CC(=O)O)CCCCC1 [gabapentin alone, gabapentin]
[4]
  gabapentin tissue levels: 0.09 μg of gabapentin per gram of tissue

## CN(C)c1ccc(O)c2c1C[C@H]1C[C@H]3[C@H](N(C)C)C(O)=C(C(N)=O)C(=O)[C@@]3(O)C(O)=C1C2=O [minocycline]
[5]
  penetration of minocycline into porcine skin: low native penetration

## hyaluronic acid [Hyaluronic Acid 100,000 Da degraded]
[1]; listed as 100,000 Da degraded
  Delivery of a Small Molecule Compound: ++++
[2]; listed as 100,000 Da degraded
  Delivery of a Macromolecule Compound: +++
[3]; listed as 100,000 Da degraded
  Hyaluronic Acid Skin Penetration: +++

## hyaluronic acid [Hyaluronic Acid 10,000 Da]
[1]; listed as 10,000 Da
  Delivery of a Small Molecule Compound: +++
[2]; listed as 10,000 Da
  Delivery of a Macromolecule Compound: ++
[3]; listed as 10,000 Da
  Hyaluronic Acid Skin Penetration: ++

## hyaluronic acid [Hyaluronic Acid 20,000 Da]
[1]; listed as 20,000 Da
  Delivery of a Small Molecule Compound: ++++
[2]; listed as 20,000 Da
  Delivery of a Macromolecule Compound: +++++
[3]; listed as 20,000 Da
  Hyaluronic Acid Skin Penetration: ++

## hyaluronic acid [Hyaluronic Acid 100,000 Da]
[1]; listed as 100,000 Da
  Delivery of a Small Molecule Compound: 0
[2]; listed as 100,000 Da
  Delivery of a Macromolecule Compound: 0
[3]; listed as 100,000 Da
  Hyaluronic Acid Skin Penetration: +/−

## hyaluronic acid [Hyaluronic Acid 5000 Da]
[1]; listed as 5000 Da
  Delivery of a Small Molecule Compound: +
[2]; listed as 5000 Da
  Delivery of a Macromolecule Compound: +
[3]; listed as 5000 Da
  Hyaluronic Acid Skin Penetration: +++

## hyaluronic acid [Hyaluronic Acid 3000 Da]
[1]; listed as 3000 Da
  Delivery of a Small Molecule Compound: +++
[2]; listed as 3000 Da
  Delivery of a Macromolecule Compound: +
[3]; listed as 3000 Da
  Hyaluronic Acid Skin Penetration: ++++

## hyaluronic acid [Hyaluronic Acid disaccharide (400 Da)]
[1]; [6]
  Delivery of a Small Molecule Compound: 0
[2]; [6]
  Delivery of a Macromolecule Compound: 0
[3]; [6]
  Hyaluronic Acid Skin Penetration: +++++

Source: US20190008795A1, “COMPOSITIONS FOR TOPICAL APPLICATION OF COMPOUNDS” (Illustris Pharmaceuticals, Inc., priority 2016, published 2019)
